Results: patent US8173693B2, “Benzenesulfonamide derivatives and pharmaceutical composition thereof” (Purzer Pharmaceutical Co., Ltd., priority 2010, dated 2012)
Entries after “also recorded” stand apart in the source; their conditions may differ.

Assays:
[1] = test system: MCF-7/ADR multidrug-resistant breast cancer; assay: SRB assay; format: cell-based; details: Homo sapiens, NCI/ADR-RES
Procedure: (§1) All cell lines were maintained in RPMI 1640 supplied with 10% fetal bovine serum into 96-well microtiter plates and maintained in a humidified chamber at 37° C. containing 5% CO2. After 24 hr, cell lines in partial wells were fixed in situ with 10% trichloroacetic acid (TCA) to represent a measurement at the time of drug addition (T0). Then, cell lines in other wells were incubated with the benzenesulfonamide derivatives of the present invention for an additional 48 hr, and fixed in situ with 10% TCA to represent a measurement at the time of stopping reaction (Tx). After rinsing the plates with PBS and air-drying, 0.4% sulforhodamine B solution (weight per volume in 1% acetic acid) was added to each well and the plates were incubated for 10 min at room temperature. Unbound sulforhodamine B was removed with 1% acetic acid and the plates were air-dried. Cells bound with sulforhodamine B was subsequently solubilized with 10 mM Tris base (Trizma; Sigma). Cell proliferation was determined by measuring the optical density at 515 nm using a Thermomax microplate reader (Molecular Devices, Sunnyvale, Calif.). The half-inhibition concention (GI50) of the benzenesulfonamide derivatives of the present invention was obtained from the detected optical density.

HeLa Cervical cancer = assay: SRB assay; format: cell-based; details: Homo sapiens, 48 hr
Procedure: as §1

[2] = test system: H1299 non-small cell lung cancer; assay: SRB assay; format: cell-based; details: Homo sapiens, NCI-H1299, 48 hr
Procedure: as §1

[3] = test system: CL1-5 non-small cell lung cancer; assay: SRB assay; format: cell-based; details: 48 hr
Procedure: as §1

tumor cells = assay: Preliminary cytotoxicity assays (MTT, SRB), tumor cell panel; format: cell-based; details: comparison over Tables 1-4
Procedure: (§2) Human Bladder Cancer TSGH cells, Human hepatoblastoma HepG2 cells, Human colorectal adenocarcinoma HT-29 cells, human nasopharyngeal carcinoma KB cells, Human gastric adenocarcinoma AGS cells, Human breast carcinoma MCF-7 cells, lung carcinoma A549 cells, and Human prostate carcinoma PC-3 cells were used in the preliminary cytotoxicity assays of the benzenesulfonamide derivatives of the present invention, and the inhibition activity against the tumor cells was evaluated.
(§3) All cell lines were maintained in RPMI 1640 supplied with 10% fetal bovine serum and maintained in a humidified chamber at 37° C. containing 5% CO2. Then, all cell lines were treated with compounds for 72 hr and subsequently incubated with 0.4 mg/mL of MTT at 37° C. for 2 hr. The medium was removed, and DMSO was added to dissolve MTT precipitate. Cell proliferation was determined by measuring the optical density at 540 nm using a Thermomax microplate reader (Molecular Devices, Sunnyvale, Calif.), and the IC50 values of the benzenesulfonamide derivatives of the present invention were calculated.
as §1, with “After rinsing the plates with PBS and air-drying, 0.4% sulforhodamine B solution (weight per volume in 1% acetic acid) was added to each well and the plates were incubated for 10 min at room temperature. Unbound sulforhodamine B was removed with 1% acetic acid and the plates were air-dried. Cells bound with sulforhodamine B was subsequently solubilized with 10 mM Tris base (Trizma; Sigma).” left out

[4] = test system: lung carcinoma A549 cells; assay: SRB assay; format: cell-based; details: Homo sapiens, 48 hr
[5] = test system: Human colorectal adenocarcinoma HT-29 cells; assay: SRB assay; format: cell-based; details: 48 hr
[6] = test system: murine mammary carcinoma cell line 4T1-Luc cells; assay: 4T1-Luc cell survival, sulforhodamine B staining; format: cell-based
Procedure: The murine mammary carcinoma cell line 4T1-Luc cells stably expressing the firefly luciferase gene under the selection of G418 was cultured in RPMI containing 10% fetal calf serum. The cells were maintained at 37° C. with 5% CO2 in air and subcultured twice weekly.
Each well of 96-well plates was seeded with 2,500 or 5,000 tumor cells, and the tumor cells were incubated in medium with 10% fetal bovine serum or without serum. The tumor cells were treated with 0, 0.01, 0.1, 1, or 10 μM of GM119 for 48 hr. Then, the tumor cells were fixed with 10% of trichloroacetic acid, washed with water, stained with sulforhodamine B. Then, the sample was washed with 1% of acetic acid, and Tris buffer was added into the sample. The absorption of the sample was determined at 515 nm with a Thermomax microplate reader, and repeated for 4 times. The absorption of the cells without drug treatment served as 100% survival, and the survival was calculated and represented by average±standard deviation %.

[7] = test system: Human gastric adenocarcinoma AGS cells; assay: SRB assay; format: cell-based; details: 48 hr
[8] = test system: Human hepatoblastoma HepG2 cells; assay: MTT assay; format: cell-based; details: 72 hr, read-out: IC50 HepaG2
Procedure: as §2, §3

[9] = test system: A549 non-small cell lung cancer; assay: MTT assay; format: cell-based; details: Homo sapiens, 72 hr
Procedure: as §2, §3

[10] = test system: Human colorectal adenocarcinoma HT-29 cells; assay: MTT assay; format: cell-based; details: 72 hr
Procedure: as §2, §3

[11] = test system: Human gastric adenocarcinoma AGS cells; assay: MTT assay; format: cell-based; details: 72 hr
Procedure: as §2, §3

[12] = test system: Human Bladder Cancer TSGH cells; assay: MTT assay; format: cell-based; details: 72 hr
Procedure: as §2, §3

[13] = test system: Human prostate carcinoma PC-3 cells; assay: MTT assay; format: cell-based; details: 72 hr
Procedure: as §2, §3

[14] = test system: human nasopharyngeal carcinoma KB cells; assay: MTT assay; format: cell-based
Procedure: as §2, §3

[15] = test system: Human breast carcinoma MCF-7 cells; assay: MTT assay; format: cell-based; details: MCF7, 72 hr
Procedure: as §2, §3

4T1-Luc cells = assay: In vivo evaluation, long-time treatment, mice implanted with 4T1-Luc cells
Procedure: GM119 (25 mg/kg) and Taxol (10 mg/kg) were simultaneously applied to a mouse implanted with 4T1-Luc cells for a long time to observe the effect of GM119 on the 4T1-Luc cells.
A suspension of 4T1-Luc cells in matrigel was injected into the breast adipocyte to obtain mice implanted with luciferase tumor cells. […] When the size of the tumor cells was achieved to 200-500 mm^3, the mice were divided into […], and the number of the mice in each group is ≧5. Then, 0/0, 0/25, 10/[…], or 10/0 mg/kg of Taxol/GM119 was abdominal-injected into the mice every two days until death of the mice, wherein GM119 and Taxol were dissolved in cremophor, and the volume of injection to each mouse is 50 μl. The weight and the number of the mice were recorded every day to analyze the change on the weight and the survival time of the mice. After the drugs were applied to the mice, the size of the tumor cells in the mice was evaluated with bioluminescence every two days.

[16] = test system: Human breast carcinoma MCF-7 cells; assay: SRB assay; format: cell-based; details: MCF7, 48 hr

Compound: COc1ccc(S(=O)(=O)Nc2cccc3c2[nH]c2c(C)ccc(C)c23)cc1 [Compound 6c, N-(5,8-Dimethyl-9H-carbazol-1-yl)-4-methoxybenzenesulfonamide]
- GI50 [1]: 0.39 µM
- GI50 (HeLa Cervical cancer): 0.19 µM
- GI50 [2]: 0.46 µM
- GI50 [3]: 0.26 µM
- inhibitory activity against the tumor cells (in words) (tumor cells): has the best inhibition activity; also recorded: has the highest inhibitory activity
- IC50 [4]: 10 µM
- IC50 [5]: 9 µM
- growth of the 4T1 cells ([6]; 0.01 μM, 48 hr, medium with or without serum, FIG. 1): the growth of the 4T1 cells can be inhibited
- inhibition of the 4T1 cells ([6]; 10 μM, 48 hr, FIG. 1): the inhibition of the 4T1 cells is apparent
- killing of 4T1 cells (FIG. 1 legend) ([6]; in vitro assay): kills the murine mammary carcinoma 4T1 cell
- IC50 [7]: 1 µM
- IC50 [8]: 0.4 µM
- IC50 [9]: 1.12 µM
- IC50 [10]: 0.4 µM
- IC50 [11]: 1.4 µM
- IC50 [12]: 0.5 µM
- IC50 [13]: 0.24 µM
- IC50 ([14]; Homo sapiens, KB, MTT assay, 72 hr): 0.8 µM
- inhibitory activity against KB cells compared with E7070 ([14]; own MTT value vs literature value): has higher inhibitory activity against KB cells than E7070
- IC50 [15]: 0.24 µM
- survival of the mice (4T1-Luc cells; long time: Taxol 10 mg/kg and/or GM119 25 mg/kg abdominal-injected every two days until death, FIG. 3): the survival time of the mice is the longest
- growth of the tumor cells (bioluminescence) (4T1-Luc cells; long-time treatment): the growth of the tumor cells can be inhibited
- IC50 [16]: > 10 µM
